For one assay, the target named is T1, mouse WT SLACK (Mus musculus, UniProt Q6ZPR4).
T1 construct: expressed in transfected cells; host or cells: CHO
T1 sequence (Q6ZPR4 1-1224): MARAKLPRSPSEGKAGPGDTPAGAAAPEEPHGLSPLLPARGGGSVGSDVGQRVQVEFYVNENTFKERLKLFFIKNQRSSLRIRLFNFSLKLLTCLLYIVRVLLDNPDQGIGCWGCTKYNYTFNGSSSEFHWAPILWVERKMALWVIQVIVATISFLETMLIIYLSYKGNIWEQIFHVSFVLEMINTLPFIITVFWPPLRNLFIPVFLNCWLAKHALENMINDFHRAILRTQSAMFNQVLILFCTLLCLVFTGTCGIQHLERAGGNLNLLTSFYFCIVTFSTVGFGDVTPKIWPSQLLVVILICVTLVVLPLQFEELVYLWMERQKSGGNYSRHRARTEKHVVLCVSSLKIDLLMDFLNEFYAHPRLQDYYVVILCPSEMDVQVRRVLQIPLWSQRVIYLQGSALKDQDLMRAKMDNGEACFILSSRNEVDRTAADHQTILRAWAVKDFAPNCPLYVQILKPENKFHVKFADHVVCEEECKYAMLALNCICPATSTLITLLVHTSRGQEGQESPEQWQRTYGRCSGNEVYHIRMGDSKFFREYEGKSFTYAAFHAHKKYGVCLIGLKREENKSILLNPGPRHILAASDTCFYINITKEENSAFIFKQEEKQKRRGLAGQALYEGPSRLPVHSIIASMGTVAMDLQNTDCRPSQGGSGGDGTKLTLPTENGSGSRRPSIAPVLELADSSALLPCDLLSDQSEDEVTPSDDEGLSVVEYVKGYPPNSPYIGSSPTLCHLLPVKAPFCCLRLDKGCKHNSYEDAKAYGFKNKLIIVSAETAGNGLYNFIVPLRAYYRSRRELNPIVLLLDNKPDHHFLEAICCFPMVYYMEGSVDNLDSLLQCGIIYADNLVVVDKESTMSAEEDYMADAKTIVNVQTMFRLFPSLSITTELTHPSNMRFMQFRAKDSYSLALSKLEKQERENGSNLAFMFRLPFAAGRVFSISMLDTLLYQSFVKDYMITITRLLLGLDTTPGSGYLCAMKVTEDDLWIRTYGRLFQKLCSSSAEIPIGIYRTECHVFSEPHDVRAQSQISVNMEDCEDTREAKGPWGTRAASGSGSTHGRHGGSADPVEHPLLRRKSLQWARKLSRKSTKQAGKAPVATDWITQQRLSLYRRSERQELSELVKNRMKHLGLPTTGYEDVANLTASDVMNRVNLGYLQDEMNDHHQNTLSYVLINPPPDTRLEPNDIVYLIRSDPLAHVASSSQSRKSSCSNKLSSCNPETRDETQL
Nature of the assay: Whole-cell APC in CHO cells stably expressing mouse WT SLACK. Format: cell-based. Particulars: for IC50: APC, CHO cells; for Imax: maximum inhibition at 30 µM standardized to VU0606170 (100%). The source says:
Development of a useful SLACK inhibitor in vivo tool will require potent activity at the corresponding mouse ortholog as studies in appropriate mouse models will be critical. Thus, we evaluated analogs 32 and 48 in our APC assay using CHO cells stably expressing mouse WT SLACK (Table 6). […] We were also eager to evaluate the same compounds with regard to their ability to inhibit clinically relevant GOF SLACK mutants. Both the C-terminus A934T mutant and transmembrane G288S mutant have been associated with clinical cases of EIMFS [3, 7].
Automated patch-clamp recording was performed with a SyncroPatch 768 PE system (Nanion, Munich, Germany) as previously described. Whole-cell recordings were performed at room temperature. Cells were harvested by first washing with PBS without Mg^2+ or Ca^2+ (Gibco, Billings, MT, USA) to remove cell culture media, followed by dissociation with TryPLE (Gibco, Billings, MT, USA). Cells were then resuspended and diluted to 100,000 cells/mL in external solution. External solution contained 105 mM NaCl, 4 mM KCl, 1 mM MgCl2, 5 mM CaCl2, 10 mM HEPES, and 40 mM N-Methyl-D-glucamine chloride, titrated to pH of 7.4 and osmolarity of 300 mOsm/kg; internal solution contained 70 mM NaCl, 70 mM KF, 10 mM KCl, 5 mM EGTA, and 5 mM HEPES, titrated to a pH of 7.2 and osmolarity of 295 mOsm/kg.
The APC protocol was set as follows: Cells were held at a […] of −80 mV for 100 ms, then a ramp protocol was performed from −100 mV to 80 mV at 0.4 mV/ms, followed by holding the cell at −80 mV for another 100 ms, then steps were performed at −20 mV, 0 mV, +20 mV, +40 mV, and +60 mV for 100 ms of each step. Whole-cell currents were measured at 0 mV and normalized to current after external buffer addition. […] To obtain the concentration-response relationship graphs and IC50 values, we take the median value of the last 7 current amplitude values obtained for each set of data points collected for a given concentration at a particular step.

A further assay addresses WT hSLACK (Homo sapiens, UniProt Q5JUK3). As to the kind of experiment: Whole-cell automated patch-clamp (APC) in CHO cells stably expressing WT hSLACK. It is filed as cell-based. The settings on record: range across the three variants, APC; read-out: IC50 values across WT, A934T, and G288S SLACK. In short, it runs like this:
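CHO-K1 cells stably expressing human SLACK were whole-cell recorded at room temperature with Na/NMDG external solution pH 7.4 and KF-based internal pH 7.2. Concentrations 0.125–30 μM in half-log steps, ≥3 cells each; ramp and step protocol from −80 mV holding, current at 0 mV normalized to post-buffer current, IC50 from median of last 7 amplitudes.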

WT hSLACK, sequence (Q5JUK3 whole entry): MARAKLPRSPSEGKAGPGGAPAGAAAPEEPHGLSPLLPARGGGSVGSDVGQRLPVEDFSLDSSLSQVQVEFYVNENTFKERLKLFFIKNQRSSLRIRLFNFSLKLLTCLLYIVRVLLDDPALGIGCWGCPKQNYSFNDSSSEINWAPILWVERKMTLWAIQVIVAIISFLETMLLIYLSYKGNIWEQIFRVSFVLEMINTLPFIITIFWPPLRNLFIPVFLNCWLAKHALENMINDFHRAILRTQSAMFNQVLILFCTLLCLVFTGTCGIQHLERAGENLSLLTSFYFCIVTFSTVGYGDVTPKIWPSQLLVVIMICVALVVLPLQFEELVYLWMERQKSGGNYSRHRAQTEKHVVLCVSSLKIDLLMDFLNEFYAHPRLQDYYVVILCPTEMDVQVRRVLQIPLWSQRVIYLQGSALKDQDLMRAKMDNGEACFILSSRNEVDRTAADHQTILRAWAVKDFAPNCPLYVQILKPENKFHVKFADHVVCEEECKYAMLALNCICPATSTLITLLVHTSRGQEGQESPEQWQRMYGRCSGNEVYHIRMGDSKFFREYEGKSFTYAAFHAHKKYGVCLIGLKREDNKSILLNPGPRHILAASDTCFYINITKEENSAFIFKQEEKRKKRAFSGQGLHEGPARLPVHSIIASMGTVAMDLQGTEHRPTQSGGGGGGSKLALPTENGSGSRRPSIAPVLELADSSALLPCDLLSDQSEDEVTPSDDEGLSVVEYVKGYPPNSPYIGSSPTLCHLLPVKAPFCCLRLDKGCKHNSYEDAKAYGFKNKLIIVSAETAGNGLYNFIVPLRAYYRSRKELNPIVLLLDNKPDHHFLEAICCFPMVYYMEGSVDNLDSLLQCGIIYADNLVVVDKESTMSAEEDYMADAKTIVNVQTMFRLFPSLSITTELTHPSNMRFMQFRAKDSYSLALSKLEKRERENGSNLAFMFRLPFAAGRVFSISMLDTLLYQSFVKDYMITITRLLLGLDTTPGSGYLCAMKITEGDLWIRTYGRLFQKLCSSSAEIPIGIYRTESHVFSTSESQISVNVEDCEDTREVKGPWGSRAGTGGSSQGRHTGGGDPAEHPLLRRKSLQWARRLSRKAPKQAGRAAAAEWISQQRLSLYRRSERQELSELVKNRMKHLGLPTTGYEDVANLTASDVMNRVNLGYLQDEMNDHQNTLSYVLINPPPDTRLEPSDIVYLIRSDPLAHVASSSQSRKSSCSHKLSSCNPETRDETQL

With `COc1cccc(Cn2c(=O)c3c(nc(N(C)Cc4ccccc4)n3C)n(C)c2=O)c1` [Analog 32], at mouse WT SLACK, half-maximal inhibition (IC50) required 1400 nM and the Imax turned out to be 100%.

As for `CCCCN(Cc1ccc(F)cc1)c1nc2c(c(=O)n(Cc3cccc(OC)c3)c(=O)n2C)n1C` [Analog 80], on WT hSLACK, the IC50 was in the range of 590 to 710 nM. Consider `CN(Cc1cccc(F)c1)c1nc2c(c(=O)n(Cc3ccccc3)c(=O)n2C)n1C` [Analog 48], for which, on mouse WT SLACK, 1300 nM corresponded to half-maximal inhibition (IC50) and the Imax was 100%.

The record behind these values is article PMC11173529, “Structure–Activity Relationship Studies in a Series of Xanthine Inhibitors of SLACK Potassium Channels” (Molecules, 2024).
